Assay results taken from PubChem BioAssay (NCI).
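Each compound was tested at five concentrations against cells in 96-well plates for 48 hours. Abbreviation: GI50, concentration required for 50% inhibition of growth. TGI denotes the concentration required for complete inhibition of growth.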 Where a SMILES comes first, the peptide text is derived from it. [ ]: non-standard residue; d: D form. The star is where a group is joined. Lauroyl = CCCCCCCCCCCC(=O)*; Aib = CC(C)(N)C(=O)O; βAla = NCCC(=O)O

Key:
Assay in all cases: inhibition of tumour cell growth, NCI panel, 48 h
HCC-2998 colon = tested on: HCC-2998 colon
COLO 205 colon = tested on: COLO 205 colon
CCRF-CEM leukemia = tested on: CCRF-CEM leukemia
NCI-H522 lung = tested on: NCI-H522 lung
SF-539 CNS = tested on: SF-539 CNS
PC-3 prostate = tested on: PC-3 prostate
NCI-H23 lung = tested on: NCI-H23 lung
T-47D breast = tested on: T-47D breast
OVCAR-5 ovarian = tested on: OVCAR-5 ovarian
KM12 colon = tested on: KM12 colon
NCI/ADR-RES ovarian = tested on: NCI/ADR-RES ovarian
HOP-62 NSCLC = tested on: HOP-62 NSCLC
SN12C renal = tested on: SN12C renal
SW-620 colon = tested on: SW-620 colon
UACC-62 melanoma = tested on: UACC-62 melanoma
ACHN renal = tested on: ACHN renal
NCI-H460 lung = tested on: NCI-H460 lung
CAKI-1 renal = tested on: CAKI-1 renal
SF-295 CNS = tested on: SF-295 CNS
MALME-3M melanoma = tested on: MALME-3M melanoma
RPMI-8226 leukemia = tested on: RPMI-8226 leukemia
HCT-15 colon = tested on: HCT-15 colon
K-562 leukemia = tested on: K-562 leukemia
OVCAR-8 ovarian = tested on: OVCAR-8 ovarian
TK-10 renal = tested on: TK-10 renal
MDA-MB-435 = tested on: MDA-MB-435
SF-268 CNS = tested on: SF-268 CNS
OVCAR-4 ovarian = tested on: OVCAR-4 ovarian
NCI-H226 lung = tested on: NCI-H226 lung
RXF 393 renal = tested on: RXF 393 renal
U251 CNS = tested on: U251 CNS
SK-OV-3 ovarian = tested on: SK-OV-3 ovarian
HCT-116 colon = tested on: HCT-116 colon
EKVX NSCLC = tested on: EKVX NSCLC
BT-549 breast = tested on: BT-549 breast
UO-31 renal = tested on: UO-31 renal
SNB-19 CNS = tested on: SNB-19 CNS
SK-MEL-28 melanoma = tested on: SK-MEL-28 melanoma
UACC-257 melanoma = tested on: UACC-257 melanoma
MCF7 breast = tested on: MCF7 breast
HT29 colon = tested on: HT29 colon
SK-MEL-5 melanoma = tested on: SK-MEL-5 melanoma
OVCAR-3 ovarian = tested on: OVCAR-3 ovarian
LOX IMVI melanoma = tested on: LOX IMVI melanoma
HS 578T breast = tested on: HS 578T breast
SK-MEL-2 melanoma = tested on: SK-MEL-2 melanoma
HOP-92 NSCLC = tested on: HOP-92 NSCLC
DU-145 prostate = tested on: DU-145 prostate
MDA-MB-231 breast = tested on: MDA-MB-231 breast
A498 renal = tested on: A498 renal
SNB-75 CNS = tested on: SNB-75 CNS
SR leukemia = tested on: SR leukemia
M14 melanoma = tested on: M14 melanoma
786-0 renal = tested on: 786-0 renal
IGROV1 ovarian = tested on: IGROV1 ovarian
A549 NSCLC = tested on: A549 NSCLC

Compound: CCCCCCCCCCCC(=O)NC(C)(C)C(=O)N1CCCC1C(=O)NC(C)(C)C(=O)NC(C)(C)C(=O)N1CCCC1C(=O)NC(C)(C)C(=O)NC(C)(C)C(=O)N1CCCC1C(=O)NC(C)C(=O)NCCC(=O)NC(C)C(=O)NC(C)(C)C(=O)NC(C)(C)C(=O)NC(C)(C)C(=O)NCCC(=O)NC(C)(C)C(=O)NC(C)(C)C(=O)NC(C)(C)C(=O)NC(C)C(=O)NCCC(=O)O (configuration not stated) (Lauroyl-[Aib]P[Aib][Aib]P[Aib][Aib]PA[βAla]A[Aib][Aib][Aib][βAla][Aib][Aib][Aib]A[βAla]-OH; configuration not given here)
- GI50 (HCC-2998 colon): 533 nM
- TGI (HCC-2998 colon): 1960 nM
- GI50 (COLO 205 colon): 344 nM
- TGI (COLO 205 colon): 721 nM
- GI50 (CCRF-CEM leukemia): 375 nM
- TGI (CCRF-CEM leukemia): 818 nM
- GI50 (NCI-H522 lung): 307 nM
- TGI (NCI-H522 lung): 621 nM
- GI50 (SF-539 CNS): 298 nM
- TGI (SF-539 CNS): 576 nM
- GI50 (PC-3 prostate): 319 nM
- TGI (PC-3 prostate): 689 nM
- GI50 (NCI-H23 lung): 303 nM
- TGI (NCI-H23 lung): 583 nM
- GI50 (T-47D breast): 440 nM
- TGI (T-47D breast): 1440 nM
- GI50 (OVCAR-5 ovarian): 467 nM
- TGI (OVCAR-5 ovarian): 1590 nM
- GI50 (KM12 colon): 478 nM
- TGI (KM12 colon): 1320 nM
- GI50 (NCI/ADR-RES ovarian): 370 nM
- TGI (NCI/ADR-RES ovarian): 833 nM
- GI50 (HOP-62 NSCLC): 325 nM
- TGI (HOP-62 NSCLC): 683 nM
- GI50 (SN12C renal): 296 nM
- TGI (SN12C renal): 672 nM
- GI50 (SW-620 colon): 400 nM
- TGI (SW-620 colon): 986 nM
- GI50 (UACC-62 melanoma): 325 nM
- TGI (UACC-62 melanoma): 724 nM
- GI50 (ACHN renal): 341 nM
- TGI (ACHN renal): 667 nM
- GI50 (NCI-H460 lung): 310 nM
- TGI (NCI-H460 lung): 577 nM
- GI50 (CAKI-1 renal): 279 nM
- TGI (CAKI-1 renal): 536 nM
- GI50 (SF-295 CNS): 349 nM
- TGI (SF-295 CNS): 873 nM
- GI50 (MALME-3M melanoma): 346 nM
- TGI (MALME-3M melanoma): 796 nM
- GI50 (RPMI-8226 leukemia): 166 nM
- TGI (RPMI-8226 leukemia): 561 nM
- GI50 (HCT-15 colon): 322 nM
- TGI (HCT-15 colon): 652 nM
- GI50 (K-562 leukemia): 337 nM
- TGI (K-562 leukemia): 822 nM
- GI50 (OVCAR-8 ovarian): 357 nM
- TGI (OVCAR-8 ovarian): 827 nM
- GI50 (TK-10 renal): 388 nM
- TGI (TK-10 renal): 1180 nM
- GI50 (MDA-MB-435): 422 nM
- TGI (MDA-MB-435): 1040 nM
- GI50 (SF-268 CNS): 404 nM
- TGI (SF-268 CNS): 1100 nM
- GI50 (OVCAR-4 ovarian): 296 nM
- TGI (OVCAR-4 ovarian): 545 nM
- GI50 (NCI-H226 lung): 435 nM
- TGI (NCI-H226 lung): 1230 nM
- GI50 (RXF 393 renal): 291 nM
- TGI (RXF 393 renal): 527 nM
- GI50 (U251 CNS): 254 nM
- TGI (U251 CNS): 500 nM
- GI50 (SK-OV-3 ovarian): 325 nM
- TGI (SK-OV-3 ovarian): 623 nM
- GI50 (HCT-116 colon): 300 nM
- TGI (HCT-116 colon): 547 nM
- GI50 (EKVX NSCLC): 349 nM
- TGI (EKVX NSCLC): 790 nM
- GI50 (BT-549 breast): 151 nM
- TGI (BT-549 breast): 383 nM
- GI50 (UO-31 renal): 669 nM
- TGI (UO-31 renal): 1700 nM
- GI50 (SNB-19 CNS): 423 nM
- TGI (SNB-19 CNS): 1210 nM
- GI50 (SK-MEL-28 melanoma): 437 nM
- TGI (SK-MEL-28 melanoma): 1360 nM
- GI50 (UACC-257 melanoma): 387 nM
- TGI (UACC-257 melanoma): 1080 nM
- GI50 (MCF7 breast): 368 nM
- TGI (MCF7 breast): 906 nM
- GI50 (HT29 colon): 480 nM
- TGI (HT29 colon): 1350 nM
- GI50 (SK-MEL-5 melanoma): 327 nM
- TGI (SK-MEL-5 melanoma): 652 nM
- GI50 (OVCAR-3 ovarian): 444 nM
- TGI (OVCAR-3 ovarian): 1130 nM
- GI50 (LOX IMVI melanoma): 286 nM
- TGI (LOX IMVI melanoma): 535 nM
- GI50 (HS 578T breast): 271 nM
- TGI (HS 578T breast): 711 nM
- GI50 (SK-MEL-2 melanoma): 345 nM
- TGI (SK-MEL-2 melanoma): 765 nM
- GI50 (HOP-92 NSCLC): 238 nM
- TGI (HOP-92 NSCLC): 515 nM
- GI50 (DU-145 prostate): 441 nM
- TGI (DU-145 prostate): 1110 nM
- GI50 (MDA-MB-231 breast): 344 nM
- TGI (MDA-MB-231 breast): 780 nM
- GI50 (A498 renal): 375 nM
- TGI (A498 renal): 860 nM
- GI50 (SNB-75 CNS): 238 nM
- TGI (SNB-75 CNS): 527 nM
- GI50 (SR leukemia): 352 nM
- TGI (SR leukemia): 884 nM
- GI50 (M14 melanoma): 387 nM
- TGI (M14 melanoma): 1010 nM
- GI50 (786-0 renal): 280 nM
- TGI (786-0 renal): 513 nM
- GI50 (IGROV1 ovarian): 377 nM
- TGI (IGROV1 ovarian): 1170 nM
- GI50 (A549 NSCLC): 310 nM
- TGI (A549 NSCLC): 635 nM
